Measurements as given in ChEMBL document CHEMBL1143232, “Antiviral activities against herpes simplex virus type 1 by HPH derivatives and their structure-activity relationships” (Bioorg Med Chem Lett, 2008).

Key:
Human alphaherpesvirus 1 = assay: Antiviral activity against HSV1 KOS in african green monkey Vero cells by plaque reduction assay; assay type: functional, organism-based; settings: Human alphaherpesvirus 1, KOS
[1] = Cytotoxicity against african green monkey Vero cells after 69 hrs by Alamar blue assay; assay type: cell-based; settings: chlorocebus sabaeus
[2] = Partition coefficient, log P of the compound; assay type: physicochemical; settings: octanol/water
[3] = Ratio of CC50 for african green monkey Vero cells to EC50 for HSV1 KOS; assay type: functional

O=C(O)CCNC(=O)c1cc(-c2cccc3ccccc23)cc(C(=O)NCCC(=O)O)n1
EC50 (Human alphaherpesvirus 1): > 100 µM | CC50 at 69 h [1]: > 100 µM

O=C(CCNC(=O)c1cccc(C(=O)NCCC(=O)NO)n1)NO
EC50 (Human alphaherpesvirus 1): > 100 µM | CC50 at 69 h [1]: > 100 µM

COC(=O)C(Cc1c[nH]cn1)NCc1cc(N(C)C)cc(C(=O)NC(Cc2c[nH]cn2)C(=O)OC)n1 (configuration not stated)
EC50 (Human alphaherpesvirus 1): > 100 µM | CC50 at 69 h [1]: > 100 µM

CC(C)(C)SCCNC(=S)c1cccc(C(=S)NCCSC(C)(C)C)n1
EC50 (Human alphaherpesvirus 1): 15 µM | CC50 at 69 h [1]: 37 µM | logP [2]: 4.4 | Ratio CC50/EC50 [3]: 2.5

CC(C)(C)SCCNC(=O)c1cccc(C(=O)NCCSC(C)(C)C)n1
EC50 (Human alphaherpesvirus 1): 79 µM | CC50 at 69 h [1]: 500 µM | logP [2]: 2.7 | Ratio CC50/EC50 [3]: 6.3

CSCCNC(=O)c1cccc(C(=O)NCCSC)n1
EC50 (Human alphaherpesvirus 1): > 100 µM | CC50 at 69 h [1]: > 100 µM

O=C(O)CCNC(=O)c1cccc(C(=O)NCCC(=O)O)n1
EC50 (Human alphaherpesvirus 1): > 100 µM | CC50 at 69 h [1]: > 100 µM

O=C(CCNC(=O)c1cc(-c2cccc3ccccc23)cc(C(=O)NCCC(=O)NO)n1)NO
EC50 (Human alphaherpesvirus 1): > 100 µM | CC50 at 69 h [1]: > 100 µM

Nc1nc2c(ncn2COCCO)c(=O)[nH]1 [ACYCLOVIR]
EC50 (Human alphaherpesvirus 1): 6 µM | CC50 at 69 h [1]: > 100 µM
